According to patent publication US20250050053A1, “METHOD OF TREATMENT AND SELECTION OF PATIENTS BENEFITING FROM AGOMELATINE BASED ON EEG MEASUREMENTS” (Alto Neuroscience, Inc., priority 2023, published 2025):

Experiments:
[1] = tested on: unselected depression patients; settings: Cipriani et al. 2018; cited from earlier work
[2] = tested on: patients with major depressive disorder; assay: Open-label trials of adjunctive agomelatine 25 mg at bedtime; baseline EEG machine learning models predicting change in MADRS; format: in vivo, human
Procedure: The inventors conducted two parallel open-label clinical trials of agomelatine at 25 mg once at bedtime in patients with major depressive disorder (NCT05118750 and NCT05157945, whose data was pooled in these analyses). […] Patients were evaluated over the course of eight weeks of treatment.
EEG data were collected at rest (encompassing both eyes open and eyes closed conditions) prior to treatment using a 19-channel EEG system covering the conventional 10-20 electrode locations. A total of 107 patients with moderate to severe depression (MADRS 20 and PHQ-9≥10) had EEG data (107 with eyes open (REO) EEG, 105 with eyes closed (REC) EEG). Quality control assessments were conducted, yielding 105 REO patient datasets and 103 REC patient datasets. […] The training dataset consisted of 60 REO patient datasets and 60 REC patient datasets. The holdout set consisted of […] and […].
In order to compile these individual signals into a single EEG composite entropy model for prediction of treatment outcome, the inventors conducted 10-fold cross-validated machine learning using elastic net regularization against an outcome of high versus low response to agomelatine. Cross-validation divides the training dataset iteratively into 9/10 for training the machine learning model and 1/10 for evaluating the predictive utility of the model (i.e., participants left out of the training itself, though part of the aforementioned training dataset). The training sample is then divided in this way until each participant has been left out of the training subset.
The Cohen's d effect sizes at these weeks are all >0.4, indicating a substantial effect size for the prediction, especially considering that the meta-analytically calculated all-comer (i.e., unselected depression patients) effect size for the difference in treatment response to agomelatine (as monotherapy) versus placebo is d=0.26 (Cipriani et al., Lancet., 2018, 391(10128):1357-1366, PMID: 29477251).
In addition to sample entropy, the inventors developed similar machine learning models to test the predictive utility of a range of other EEG complexity measures, as well as other common EEG indices. […] Thus, certain complexity measures appear to carry consistent and strong prediction of agomelatine outcome.

COc1ccc2cccc(CCNC(C)=O)c2c1 [agomelatine, N-[2-(7-methoxynaphthalen-1-yl)ethyl]acetamide]
all-comer effect size d, treatment response to agomelatine (as monotherapy) versus placebo [1]: 0.26 | Cohen's d effect size, predicted responders vs non-responders, change in MADRS ([2]; EEG sample entropy machine learning model, cross-validation left-out data of training dataset, all weeks): > 0.4 | Cohen's d, prediction of agomelatine outcome ([2]; REC, Approximate Entropy, lower gamma, Week 1): 0.23 | Cohen's d, prediction of agomelatine outcome ([2]; REC, Approximate Entropy, lower gamma, Week 2): 0.29 | Cohen's d, prediction of agomelatine outcome ([2]; REC, Approximate Entropy, lower gamma, Week 4): 0.46 | Cohen's d, prediction of agomelatine outcome ([2]; REC, Detrended Fluctuation Analysis, lower beta, Week 1): 0.49 | Cohen's d, prediction of agomelatine outcome ([2]; REC, Detrended Fluctuation Analysis, lower beta, Week 2): 0.44 | Cohen's d, prediction of agomelatine outcome ([2]; REC, Detrended Fluctuation Analysis, lower beta, Week 4): 0.41 | Cohen's d, prediction of agomelatine outcome ([2]; REC, Detrended Fluctuation Analysis, upper beta, Week 1): 0.19 | Cohen's d, prediction of agomelatine outcome ([2]; REC, Detrended Fluctuation Analysis, upper beta, Week 2): 0.20 | Cohen's d, prediction of agomelatine outcome ([2]; REC, Detrended Fluctuation Analysis, upper beta, Week 4): 0.25 | Cohen's d, prediction of agomelatine outcome ([2]; REC, Higuchi Fractal Dimension, lower beta, Week 1): 0.44 | Cohen's d, prediction of agomelatine outcome ([2]; REC, Higuchi Fractal Dimension, lower beta, Week 2): 0.36 | Cohen's d, prediction of agomelatine outcome ([2]; REC, Higuchi Fractal Dimension, lower beta, Week 4): 0.28 | Cohen's d, prediction of agomelatine outcome ([2]; REC, Higuchi Fractal Dimension, lower gamma, Week 1): 0.64 | Cohen's d, prediction of agomelatine outcome ([2]; REC, Higuchi Fractal Dimension, lower gamma, Week 2): 0.58 | Cohen's d, prediction of agomelatine outcome ([2]; REC, Higuchi Fractal Dimension, lower gamma, Week 4): 0.57 | Cohen's d, prediction of agomelatine outcome ([2]; REC, Higuchi Fractal Dimension, upper beta, Week 1): −0.29 | Cohen's d, prediction of agomelatine outcome ([2]; REC, Higuchi Fractal Dimension, upper beta, Week 2): −0.20 | Cohen's d, prediction of agomelatine outcome ([2]; REC, Higuchi Fractal Dimension, upper beta, Week 4): −0.05 | Cohen's d, prediction of agomelatine outcome ([2]; REC, Higuchi Fractal Dimension, upper gamma, Week 1): 0.16 | Cohen's d, prediction of agomelatine outcome ([2]; REC, Higuchi Fractal Dimension, upper gamma, Week 2): 0.16 | Cohen's d, prediction of agomelatine outcome ([2]; REC, Higuchi Fractal Dimension, upper gamma, Week 4): 0.21 | Cohen's d, prediction of agomelatine outcome ([2]; REC, Katz Fractal Dimension, lower beta, Week 1): 0.47 | Cohen's d, prediction of agomelatine outcome ([2]; REC, Katz Fractal Dimension, lower beta, Week 2): 0.42 | Cohen's d, prediction of agomelatine outcome ([2]; REC, Katz Fractal Dimension, lower beta, Week 4): 0.37 | Cohen's d, prediction of agomelatine outcome ([2]; REC, Katz Fractal Dimension, lower gamma, Week 1): 0.25 | Cohen's d, prediction of agomelatine outcome ([2]; REC, Katz Fractal Dimension, lower gamma, Week 2): 0.23 | Cohen's d, prediction of agomelatine outcome ([2]; REC, Katz Fractal Dimension, lower gamma, Week 4): 0.23 | Cohen's d, prediction of agomelatine outcome ([2]; REC, Katz Fractal Dimension, upper beta, Week 1): 0.42 | Cohen's d, prediction of agomelatine outcome ([2]; REC, Katz Fractal Dimension, upper beta, Week 2): 0.40 | Cohen's d, prediction of agomelatine outcome ([2]; REC, Katz Fractal Dimension, upper beta, Week 4): 0.42 | Cohen's d, prediction of agomelatine outcome ([2]; REC, Katz Fractal Dimension, upper gamma, Week 1): 0.04 | Cohen's d, prediction of agomelatine outcome ([2]; REC, Katz Fractal Dimension, upper gamma, Week 2): 0.10 | Cohen's d, prediction of agomelatine outcome ([2]; REC, Katz Fractal Dimension, upper gamma, Week 4): 0.23 | Cohen's d, prediction of agomelatine outcome ([2]; REC, Largest Lyapunov Exponent, upper alpha, Week 1): 0.10 | Cohen's d, prediction of agomelatine outcome ([2]; REC, Largest Lyapunov Exponent, upper alpha, Week 2): 0.12 | Cohen's d, prediction of agomelatine outcome ([2]; REC, Largest Lyapunov Exponent, upper alpha, Week 4): 0.18 | Cohen's d, prediction of agomelatine outcome ([2]; REC, Largest Lyapunov Exponent, upper gamma, Week 1): −0.02 | Cohen's d, prediction of agomelatine outcome ([2]; REC, Largest Lyapunov Exponent, upper gamma, Week 2): 0.08 | Cohen's d, prediction of agomelatine outcome ([2]; REC, Largest Lyapunov Exponent, upper gamma, Week 4): 0.29 | Cohen's d, prediction of agomelatine outcome ([2]; REC, Lempel-Ziv Complexity, lower gamma, Week 1): −0.06 | Cohen's d, prediction of agomelatine outcome ([2]; REC, Lempel-Ziv Complexity, lower gamma, Week 2): 0.01 | Cohen's d, prediction of agomelatine outcome ([2]; REC, Lempel-Ziv Complexity, lower gamma, Week 4): 0.15 | Cohen's d, prediction of agomelatine outcome ([2]; REC, Lempel-Ziv Complexity, upper alpha, Week 1): 0.21 | Cohen's d, prediction of agomelatine outcome ([2]; REC, Lempel-Ziv Complexity, upper alpha, Week 2): 0.17 | Cohen's d, prediction of agomelatine outcome ([2]; REC, Lempel-Ziv Complexity, upper alpha, Week 4): 0.13 | Cohen's d, prediction of agomelatine outcome ([2]; REC, Modified Multiscale Entropy, lower alpha, Week 1): 0.08 | Cohen's d, prediction of agomelatine outcome ([2]; REC, Modified Multiscale Entropy, lower alpha, Week 2): 0.11 | Cohen's d, prediction of agomelatine outcome ([2]; REC, Modified Multiscale Entropy, lower alpha, Week 4): 0.19 | Cohen's d, prediction of agomelatine outcome ([2]; REC, Modified Multiscale Entropy, lower gamma, Week 1): −0.09 | Cohen's d, prediction of agomelatine outcome ([2]; REC, Modified Multiscale Entropy, lower gamma, Week 2): 0.01 | Cohen's d, prediction of agomelatine outcome ([2]; REC, Modified Multiscale Entropy, lower gamma, Week 4): 0.21 | Cohen's d, prediction of agomelatine outcome ([2]; REC, Modified Multiscale Entropy, upper alpha, Week 1): 0.19 | Cohen's d, prediction of agomelatine outcome ([2]; REC, Modified Multiscale Entropy, upper alpha, Week 2): 0.25 | Cohen's d, prediction of agomelatine outcome ([2]; REC, Modified Multiscale Entropy, upper alpha, Week 4): 0.39 | Cohen's d, prediction of agomelatine outcome ([2]; REC, Multiscale Entropy, upper alpha, Week 1): 0.05 | Cohen's d, prediction of agomelatine outcome ([2]; REO, Approximate Entropy, lower gamma, Week 1): −0.15 | Cohen's d, prediction of agomelatine outcome ([2]; REO, Approximate Entropy, lower gamma, Week 2): −0.05 | Cohen's d, prediction of agomelatine outcome ([2]; REO, Approximate Entropy, lower gamma, Week 4): 0.09 | Cohen's d, prediction of agomelatine outcome ([2]; REO, Detrended Fluctuation Analysis, upper gamma, Week 1): 0.37 | Cohen's d, prediction of agomelatine outcome ([2]; REO, Detrended Fluctuation Analysis, upper gamma, Week 2): 0.33 | Cohen's d, prediction of agomelatine outcome ([2]; REO, Detrended Fluctuation Analysis, upper gamma, Week 4): 0.32 | Cohen's d, prediction of agomelatine outcome ([2]; REO, Higuchi Fractal Dimension, delta, Week 1): −0.15 | Cohen's d, prediction of agomelatine outcome ([2]; REO, Higuchi Fractal Dimension, delta, Week 2): −0.05 | Cohen's d, prediction of agomelatine outcome ([2]; REO, Higuchi Fractal Dimension, delta, Week 4): 0.12 | Cohen's d, prediction of agomelatine outcome ([2]; REO, Higuchi Fractal Dimension, lower beta, Week 1): 0.03 | Cohen's d, prediction of agomelatine outcome ([2]; REO, Higuchi Fractal Dimension, lower beta, Week 2): 0.03 | Cohen's d, prediction of agomelatine outcome ([2]; REO, Higuchi Fractal Dimension, lower beta, Week 4): 0.05 | Cohen's d, prediction of agomelatine outcome ([2]; REO, Higuchi Fractal Dimension, upper gamma, Week 1): 0.04 | Cohen's d, prediction of agomelatine outcome ([2]; REO, Higuchi Fractal Dimension, upper gamma, Week 2): 0.06 | Cohen's d, prediction of agomelatine outcome ([2]; REO, Higuchi Fractal Dimension, upper gamma, Week 4): 0.11 | Cohen's d, prediction of agomelatine outcome ([2]; REO, Katz Fractal Dimension, delta, Week 1): 0.04 | Cohen's d, prediction of agomelatine outcome ([2]; REO, Katz Fractal Dimension, delta, Week 2): 0.07 | Cohen's d, prediction of agomelatine outcome ([2]; REO, Katz Fractal Dimension, delta, Week 4): 0.13 | Cohen's d, prediction of agomelatine outcome ([2]; REO, Katz Fractal Dimension, lower beta, Week 1): 0.28 | Cohen's d, prediction of agomelatine outcome ([2]; REO, Katz Fractal Dimension, lower beta, Week 2): 0.18 | Cohen's d, prediction of agomelatine outcome ([2]; REO, Katz Fractal Dimension, lower beta, Week 4): 0.06 | Cohen's d, prediction of agomelatine outcome ([2]; REO, Katz Fractal Dimension, upper beta, Week 1): 0.24 | Cohen's d, prediction of agomelatine outcome ([2]; REO, Katz Fractal Dimension, upper beta, Week 2): 0.24 | Cohen's d, prediction of agomelatine outcome ([2]; REO, Katz Fractal Dimension, upper beta, Week 4): 0.29 | Cohen's d, prediction of agomelatine outcome ([2]; REO, Largest Lyapunov Exponent, upper alpha, Week 1): 0.03 | Cohen's d, prediction of agomelatine outcome ([2]; REO, Largest Lyapunov Exponent, upper alpha, Week 2): 0.08 | Cohen's d, prediction of agomelatine outcome ([2]; REO, Largest Lyapunov Exponent, upper alpha, Week 4): 0.17 | Cohen's d, prediction of agomelatine outcome ([2]; REO, Largest Lyapunov Exponent, upper gamma, Week 1): −0.24 | Cohen's d, prediction of agomelatine outcome ([2]; REO, Largest Lyapunov Exponent, upper gamma, Week 2): −0.11 | Cohen's d, prediction of agomelatine outcome ([2]; REO, Largest Lyapunov Exponent, upper gamma, Week 4): 0.08 | Cohen's d, prediction of agomelatine outcome ([2]; REO, Lempel-Ziv Complexity, lower gamma, Week 1): −0.24 | Cohen's d, prediction of agomelatine outcome ([2]; REO, Lempel-Ziv Complexity, lower gamma, Week 2): −0.13 | Cohen's d, prediction of agomelatine outcome ([2]; REO, Lempel-Ziv Complexity, lower gamma, Week 4): 0.02 | Cohen's d, prediction of agomelatine outcome ([2]; REO, Lempel-Ziv Complexity, theta, Week 1): 0.13 | Cohen's d, prediction of agomelatine outcome ([2]; REO, Lempel-Ziv Complexity, theta, Week 2): 0.14 | Cohen's d, prediction of agomelatine outcome ([2]; REO, Lempel-Ziv Complexity, theta, Week 4): 0.17 | Cohen's d, prediction of agomelatine outcome ([2]; REO, Lempel-Ziv Complexity, upper beta, Week 1): 0.19 | Cohen's d, prediction of agomelatine outcome ([2]; REO, Lempel-Ziv Complexity, upper beta, Week 2): 0.21 | Cohen's d, prediction of agomelatine outcome ([2]; REO, Lempel-Ziv Complexity, upper beta, Week 4): 0.30 | Cohen's d, prediction of agomelatine outcome ([2]; REO, Modified Multiscale Entropy, upper beta, Week 1): 0.08 | Cohen's d, prediction of agomelatine outcome ([2]; REO, Modified Multiscale Entropy, upper beta, Week 2): 0.15 | Cohen's d, prediction of agomelatine outcome ([2]; REO, Modified Multiscale Entropy, upper beta, Week 4): 0.31 | Cohen's d, prediction of agomelatine outcome ([2]; REO, Multiscale Entropy, lower gamma, Week 1): −0.41 | Cohen's d, prediction of agomelatine outcome ([2]; REO, Multiscale Entropy, lower gamma, Week 2): −0.21 | Cohen's d, prediction of agomelatine outcome ([2]; REO, Multiscale Entropy, lower gamma, Week 4): 0.05 | MADRS change, high vs low Pz low-gamma sample entropy ([2]; z≥0.27, full study sample, all weeks): strong and statistically significant prediction of treatment outcome across all weeks
